Values quoted from earlier work as cited in US20050090554A1, “Treatment of gastroparesis and nonulcer dyspepsia with GABAB agonists” (priority 2003, published 2005).

Legend:
[1] = administered isomer
[2] = compared with the S-isomer
[3] = with the exception of the upper small intestine (carrier-mediated transport)

Row | permeability in the GI tract [3] | SMILES | arterial blood pressure and heart rate [1] | half-life [2] | metabolic clearance [2] | systemic exposure [2]
1 |  | NC[C@@H](CC(=O)O)c1ccc(Cl)cc1 [(S)-baclofen] | decrease |  |  | 
2 |  | NC[C@H](CC(=O)O)c1ccc(Cl)cc1 [(R)-baclofen] | opposite effects | longer | lower | higher
3 | poor permeability | NCC(CC(=O)O)c1ccc(Cl)cc1 (racemic) [baclofen, 4-amino-3-(p-chlorophenyl)-butyric acid] |  |  |  | 
